Measured values reported in patent US8808717B2, “Control of ectoparasites” (priority 2007, dated 2014).

What was measured:
[1] = tested on: ova from cat flea (Ctenocephalides felis); assay: Activity against C. felis ova (larval emergence in treated vials); type: in vivo
Source text: Activity Against C. Felis Ova
Evaluation of test compounds against flea ova is a commonly-used assay for the determination of commercial efficacy against these insect parasites (McTier T L et al., Evaluation of the effects of selamectin against adult and immature stages of fleas (Ctenocephalides felis felis) on dogs and cats. Vet Parasitol. 2000 Aug. 23; 91(3-4):201-12; Dryden M et al., Efficacy of a topically applied formulation of metaflumizone on cats against the adult cat flea, flea egg production and hatch, and adult flea emergence. Vet Parasitol. 2007 Dec. 15; 150(3):263-7). Compounds were dissolved in acetone and 100 μl of each solution was placed in 5 ml glass vials and allowed to air dry. Forty ova from cat flea (Ctenocephalides felis) that were less than 48 hours old as well as flea dirt (primarily adult flea fecal material and host dander) were placed in the vials. Vials were covered with paper towels to allow air exchange and incubated at 25° with 90% humidity for 5 days, and the number of larvae were counted.

[2] = tested on: Larval-stage lone star ticks (Amblyomma americanum); assay: Dip survival assay (larval immersion microassay) against A. americanum larvae; type: in vivo; settings: submerged 30 minutes, counted after 24 hours
Source text: Activity Against A. Americanum Larvae in a Dip Survival Assay
Using a previously-described protocol that can effectively predict compound potency against adult ticks in the field (White, W H. et al., An in vitro larval immersion microassay for identifying and characterizing candidate acaricides. J Med Entomol. 2004 November; 41(6):1034-42), test compounds from a dimethyl sulfoxide (DMSO) stock or 2% DMSO alone were dispensed into a round-bottom 96-well plate and mixed with aqueous buffer containing 1% ethanol and 0.2% Triton X100. […] Larval-stage lone star ticks (Amblyomma americanum) were dispensed into the wells containing test compounds and submerged for 30 minutes. The ticks were subsequently dispensed into a tissue biopsy bag, which is allowed to dry for 1 hour. After drying, the bags were incubated at 25° with 95% humidity for 24 hours and the number of live and dead larvae were counted.

tobacco budworm = settings: cited from earlier work
mosquito larvae = settings: cited from earlier work
[3] = rat versus trout liver microsomes; cited from earlier work
cabbage looper = settings: cited from earlier work
southern corn rootworm = settings: cited from earlier work
tobacco bud worm = settings: tobacco budworm; cited from earlier work
cotton aphids = settings: cited from earlier work
fish, mammals = settings: fish versus mammals; cited from earlier work

| SMILES | Flea larvae emerging, percent of total eggs, from 40 ova after 5 days ([1]; 10 μg per vial) [%] | Number of flea larvae emerging from 40 ova after 5 days ([1]; 10 μg per vial) | Flea larvae emerging, percent of total eggs, from 40 ova after 5 days ([1]; 100 μg per vial) | Number of flea larvae emerging from 40 ova after 5 days ([1]; 100 μg per vial) | Flea larvae emerging, percent of total eggs, from 40 ova after 5 days ([1]; 1 mg per vial) | Number of flea larvae emerging from 40 ova after 5 days ([1]; 1 mg per vial) | Number of live/total tick larvae 24 hours after treatment ([2]; concentration 0.001%) | Number of live/total tick larvae 24 hours after treatment ([2]; concentration 0.01%) | Number of live/total tick larvae 24 hours after treatment ([2]; concentration 0.05%) | activity (LC50) (tobacco budworm) | LC50 (mosquito larvae) [ppm] | degradation by liver microsomes [3] | LC50 (cabbage looper) [ppm] | activity (LC50) (southern corn rootworm) | metabolism (tobacco bud worm) | LC50 (cotton aphids) [ppm] | toxicity (fish, mammals) |
| --- | --- | --- | --- | --- | --- | --- | --- | --- | --- | --- | --- | --- | --- | --- | --- | --- | --- |
| CCc1nn(C)c(C(=O)NCc2ccc(Oc3ccc(C)cc3)cc2)c1Cl [Formula IV, 4-chloro-3-ethyl-1-methyl-N-[4-(p-tolyloxy)benzyl]pyrazole-5-carboxamide] | 15 | 6 | 0 (0%) | 0 (0%) | 0 (0% ) | 0 (0% ) | 58/114 | 0/79 | 0/76 | – | – | – | – | – | – | – | – |
| CCc1nn(C)c(C(=O)NCc2ccc(C(C)(C)C)cc2)c1Cl [Formula II, 4-chloro-5-ethyl-2-methyl-N-[(4-tert-butylphenyl)methyl]pyrazole-3-carboxamide] | 17.5 | 7 | 2.5% | 1 | 2.5% | 1 | 38/85 | 0/77 | 0/69 | – | – | – | – | – | – | – | – |
| CC(C)(C)c1ccc(CCOc2ncnc3ccccc23)cc1 [Formula I, 4-tert-butylphenethyl quinazolin-4-yl ether] | 10 | 4 | 2.5% | 1 | 2.5% | 1 | 23/80 | 0/51 | 0/48 | greater than 400 ppm | 0.725 | degraded more extensively by rat liver microsomes than by trout liver microsomes | 188 | greater than 400 ppm | extensively metabolized | 2.6 | higher toxicity of the compound to fish than to mammals |
